Laboratory results taken from doi:10.1101/2021.10.07.463234v2 (biorxiv, 2021).
Where a name gives a salt, the structure may show the parent alone.

Biological target: SARS-CoV-2 Mac1 (Severe acute respiratory syndrome coronavirus 2, UniProt P0DTD1)
Assay: biochemical
Details: 100 µM; inhibitor

Q: With `CN(C)CC(c1ccc(O)cc1)C1(O)CCCCC1` (centres unmarked) [Desvenlafaxine] as the molecule, how does the “%inhibition” value read?
A: 6.836%

Q: With `C[C@@H]1C[C@H]2[C@@H]3CCC4=CC(=O)C=C[C@]4(C)[C@@]3(F)[C@@H](O)C[C@]2(C)[C@@]1(O)C(=O)CO` [Dexamethasone (DHAP)] as the molecule, how does the “%inhibition” value read?
A: 0%

Q: How did the “%inhibition” value turn out when `Cc1cccc([C@H](C)c2c[nH]cn2)c1C` [Dexmedetomidine HCl] was run?
A: 0%

Q: How did the “%inhibition” value turn out when `Cc1cccc([C@H](C)c2c[nH]cn2)c1C` [Dexmedetomidine] was run?
A: 18.38%

Q: Which “%inhibition” value does the source give for `C[C@@H](CN1CC(=O)NC(=O)C1)N1CC(=O)NC(=O)C1` [Dexrazoxane HCl (ICRF-187, ADR-529)] here?
A: 32.25%

Q: For `C[C@@H](CN1CC(=O)NC(=O)C1)N1CC(=O)NC(=O)C1` [Dexrazoxane], which “%inhibition” value is on record?
A: 12.37%

Q: For `O=C(O)Cc1ccccc1Nc1c(Cl)cccc1Cl` [Diclofenac Diethylamine], which “%inhibition” value is on record?
A: 0%

Q: Which “%inhibition” value does the source give for `O=C(O)Cc1ccccc1Nc1c(Cl)cccc1Cl` [Diclofenac Potassium] here?
A: 7.108%

Same assay, conditions: read-out: %inhibition

Q: How did the inhibition at 100 µM turn out when `CN(C)[C@@H]1C(O)=C(C(N)=O)C(=O)[C@@]2(O)C(O)=C3C(=O)c4c(O)ccc(Cl)c4[C@@H](O)[C@H]3C[C@@H]12` [Demeclocycline HCl] was run?
A: 4.3%

Q: `C[C@H](CCC(=O)O)[C@H]1CC[C@H]2[C@@H]3CC[C@@H]4C[C@H](O)CC[C@]4(C)[C@H]3C[C@H](O)[C@]12C` [Deoxycholic acid] was tested. Which inhibition at 100 µM did it give?
A: 0%

Q: For `CC(=O)OCC(=O)[C@H]1CC[C@H]2[C@@H]3CCC4=CC(=O)CC[C@]4(C)[C@H]3CC[C@]12C` [Deoxycorticosterone acetate], which inhibition at 100 µM is on record?
A: 3.46%

Q: With `CNCCCN1c2ccccc2CCc2ccccc21` [Desipramine Hydrochloride] as the molecule, how does the inhibition at 100 µM read?
A: 15.3%

Q: Which inhibition at 100 µM does the source give for `N=C(N)NCCC[C@@H](NC(=O)[C@@H]1CCCN1C(=O)[C@@H]1CSSCCC(=O)N[C@@H](Cc2ccc(O)cc2)C(=O)N[C@@H](Cc2ccccc2)C(=O)N[C@@H](CCC(N)=O)C(=O)N[C@@H](CC(N)=O)C(=O)N1)C(=O)NCC(N)=O` [Desmopressin Acetate] here?
A: 8.25%

Q: With `C#C[C@]1(O)CC[C@H]2[C@@H]3CCC4=CCCC[C@@H]4[C@H]3C(=C)C[C@@]21CC` [Desogestrel] as the molecule, how does the inhibition at 100 µM read?
A: 0%

Q: How did the inhibition at 100 µM turn out when `CC1(C)O[C@@H]2C[C@H]3[C@@H]4CCC5=CC(=O)C=C[C@]5(C)[C@H]4[C@@H](O)C[C@]3(C)[C@]2(C(=O)CO)O1` [Desonide] was run?
A: 17.1%

Q: How did the inhibition at 100 µM turn out when `CN(C)CC(c1ccc(O)cc1)C1(O)CCCCC1` (centres unmarked) [Desvenlafaxine Succinate] was run?
A: 7.7%

Q: For `Cc1cccc(Cc2c[nH]cn2)c1C` [Detomidine HCl], which inhibition at 100 µM is on record?
A: 0%

Q: `CC(=O)OCC(=O)[C@@]1(O)[C@H](C)C[C@H]2[C@@H]3CCC4=CC(=O)C=C[C@]4(C)[C@@]3(F)[C@@H](O)C[C@@]21C` [Dexamethasone Acetate] was tested. Which inhibition at 100 µM did it give?
A: 0%

Q: For `Cc1c(OCC(F)(F)F)ccnc1C[S@@+]([O-])c1nc2ccccc2[nH]1` [Dexlansoprazole], which inhibition at 100 µM is on record?
A: 13.9%

Q: `COc1ccc2c(c1)[C@]13CCCC[C@@H]1[C@H](C2)N(C)CC3` [Dextromethorphan hydrobromide hydrate] was tested. Which inhibition at 100 µM did it give?
A: 8.58%

Q: Which inhibition at 100 µM does the source give for `OC[C@H]1OC(O)[C@H](O)[C@@H](O)[C@@H]1O` (some centres unmarked) [Dextrose] here?
A: 0%

Q: With `CC(=O)Oc1cccc2c1C(=O)c1c(OC(C)=O)cc(C(=O)O)cc1C2=O` [Diacerein] as the molecule, how does the inhibition at 100 µM read?
A: 3.21%

Q: For `C=C=CCNC(=O)c1ccc(F)cc1` [Diastase], which inhibition at 100 µM is on record?
A: 0%

Q: With `CC(=O)Nc1c(I)c(NC(C)=O)c(I)c(C(=O)O)c1I` [Diatrizoate sodium] as the molecule, how does the inhibition at 100 µM read?
A: 7.54%

Q: `CC1=Nc2ccc(Cl)cc2S(=O)(=O)N1` [Diazoxide] was tested. Which inhibition at 100 µM did it give?
A: 0%

Q: With `CCCC(=O)Nc1ncnc2c1ncn2[C@@H]1O[C@@H]2COP(=O)(O)O[C@H]2[C@H]1OC(=O)CCC` [Dibutyryl-cAMP (Bucladesine)] as the molecule, how does the inhibition at 100 µM read?
A: 4.86%

Q: How did the inhibition at 100 µM turn out when `Oc1ccc(Cl)cc1Cc1cc(Cl)ccc1O` [Dichlorophene] was run?
A: 15%

Q: For `NS(=O)(=O)c1cc(Cl)c(Cl)c(S(N)(=O)=O)c1` [Dichlorphenamide (Diclofenamide)], which inhibition at 100 µM is on record?
A: 3.01%

Q: How did the inhibition at 100 µM turn out when `N#CC(c1ccc(Cl)cc1)c1c(Cl)cc(-n2ncc(=O)[nH]c2=O)cc1Cl` (centres unmarked) [Diclazuril] was run?
A: 0%
